Assay results taken from US11414449B2, “Hydrated and anhydrous polymorphs of 2′-O- fucosyllactose and their production methods” (BASF SE, priority 2012, dated 2022).

Legend:
Format in all cases: physicochemical
[1] = re-analysis of example batches after storage (KF, LOD)
Experimental: (§1) Determination of water content in the product based on a specific oxidation-reduction reaction between the water present in the sample and the Karl Fischer reagent.
(§2) About 200 mg of the 2′-FL were weighed into the appropriate container, the balance was set to zero and the substance transferred into the previously dehydrated cell. The empty container was placed on the pan of the balance to determine the exact value of the substance transferred into the cell. Set the measured weight into the formula: % H2O=V×T×F/PC
(§3) Gravimetric method with heating of the sample using a halogen lamp

[2] = accelerated stability of Polymorph A, water content by Karl-Fischer over time; settings: accelerated stability (75 ± 5% RH)
Experimental: as §1, §2

[3] = stability studies of Polymorph A (accelerated and 25°C/60% RH): KF, loss on drying, XRPD after storage; settings: 40°±2° C., 75±5% RH and 25°±2° C., 60±5% RH
Experimental: In particular Polymorph A, was subjected to studies of stability both accelerated at 40°±2° C.; 75±5% RH and at 25°±2° C., 60±5% RH.
In particular, the percentage of water takes values between 5% and 7%, preferably between 5.5% and 6.5%, still more preferably between 5.7% and 6.2% (See Table 1).
as §1, §3

## C[C@@H]1OC(O[C@H]2[C@H](O[C@H]3[C@H](O)[C@@H](O)C(O)O[C@@H]3CO)O[C@H](CO)[C@H](O)[C@@H]2O)[C@@H](O)[C@H](O)[C@@H]1O (mixture of isomers) [Example 4, 2′-O-fucosyllactose]
[1]; after 6 months
  KF after 6 months: 6.00%
[1]; after 6 months, LOD Method 2
  LOD after 6 months (Method 2): 2.17%

## C[C@@H]1OC(O[C@H]2[C@H](O[C@H]3[C@H](O)[C@@H](O)C(O)O[C@@H]3CO)O[C@H](CO)[C@H](O)[C@@H]2O)[C@@H](O)[C@H](O)[C@@H]1O (mixture of isomers) [Example 19, 2′-O-fucosyllactose]
[1]; after 2 months
  KF after 2 months: 0.34%

## C[C@@H]1OC(O[C@H]2[C@H](O[C@H]3[C@H](O)[C@@H](O)C(O)O[C@@H]3CO)O[C@H](CO)[C@H](O)[C@@H]2O)[C@@H](O)[C@H](O)[C@@H]1O (mixture of isomers) [Example 21, 2′-O-fucosyllactose]
[1]; after 10 days in a petri dish
  KF after 10 days in a petri dish: 0.67%

## C[C@@H]1OC(O[C@H]2[C@H](O[C@H]3[C@H](O)[C@@H](O)C(O)O[C@@H]3CO)O[C@H](CO)[C@H](O)[C@@H]2O)[C@@H](O)[C@H](O)[C@@H]1O (mixture of isomers) [Polymorph A, 2′-O-fucosyllactose]
[2]; time 0 months
  KF %: 4.2%
[2]; time 1 month
  KF %: 6.0%
[2]; time 2 months
  KF %: 6.0%
[2]; time 3 months
  KF %: 5.7%
[2]; time 4 months
  KF %: 5.9%
[2]; time 5 months
  KF %: 6.0%
[2]; time 6 months
  KF %: 6.0%
[3]
  XRPD spectrum of stored samples (crystal form retention): continues to show the characteristic peaks of Polymorph A
[3]; 1-3 months
  humidity uptake in stability studies (KF trend): tends to adsorb humidity immediately
